The values that follow come from patent US20260083723A1, “THERAPEUTIC AGENT OR PROPHYLACTIC AGENT FOR AMYOTROPHIC LATERAL SCLEROSIS” (Toray Industries, Inc., priority 2022, published 2026).

pEC50: −log10 of the molar value. Bounds are passed on as bounds.

The first assay can be described thus: In vitro radical scavenging action (DPPH method).
Conditions: not given
How it is done:
The radical scavenging action of a test compound can be evaluated using an in vitro test and, for example, by a method (Antioxidants, 2019, vol. 258) using a stable radical, 1,1-diphenyl-2-picrylhydrazil (DPPH).
Radical scavenging action was evaluated using the DPPH method in the compound of Comparative Example 1, which is a tetrahydroquinoxaline derivative, and in the tetrahydroquinoline derivative (I) or a pharmaceutically acceptable salt thereof. The DPPH method was performed using an antioxidant capacity measurement kit (Dojindo Laboratories).
A test compound was dissolved in DMSO, and the resulting solution was then mixed with an assay buffer and a DPPH solution, which are included in the kit, to a total volume of 200 μL to obtain a final concentration of 10% DMSO, and the reaction was allowed to proceed. Wells added with […] ferrostatin-1, a radical scavenger, were grouped as “control,” and wells not added with test compound were grouped as “background”. The test compound was serially diluted 3-fold starting from a maximum concentration of 100 μmol/L, and the diluted test compound (1.2, 3.7, 11.1, 33.3, or 100 μmol/L) was added and allowed to react at room temperature. Thirty minutes after the reaction, the absorbance at 517 nm was measured, and the average absorbance value was calculated (N=2). The radical scavenging action of the test compound (hereinafter referred to as radical scavenging rate, %) was calculated based on Equation 2. The EC50 value of the test compound was calculated from the radical scavenging rate.
A note “no detection of radical scavenging action (N.D.),” is given to compounds with a EC50 of >100 μmol/L.
A general note: Loss of DPPH colour is used to gauge radical scavenging.
Turning to `c1ccc(C2CNc3ccccc3N2)cc1` (stereo not drawn) [Comparative Example 1, 2-phenyl-1,2,3,4-tetrahydroquinoxaline, reference compound], the “radical scavenging action (in words)” value is on record as “exhibited radical scavenging action”.

The assay is the same for the next values; noted with them: 1.2-100 μmol/L, 30 minutes at room temperature, absorbance at 517 nm.
Regarding `c1ccc(C2CNc3ccccc3N2)cc1` (stereo not drawn) [Comparative Example 1, 2-phenyl-1,2,3,4-tetrahydroquinoxaline, reference compound], the pEC50 is 5.07.

The compound `c1ccc([C@H]2CCc3ccccc3N2)cc1` [Example 2, (R)-2-phenyl-1,2,3,4-tetrahydroquinoline] had a pEC50 of under 4.00.

`c1ccc([C@@H]2CCc3ccccc3N2)cc1` [Example 3, (S)-2-phenyl-1,2,3,4-tetrahydroquinoline] showed a pEC50 of under 4.00.

For the compound `CS(=O)(=O)c1ccc(C2CCc3ccccc3N2)cc1` (stereo not drawn) [Example 16, 2-(4-(methylsulfonyl)phenyl)-1,2,3,4-tetrahydroquinoline], the pEC50 was under 4.00.

For the compound `CC(=O)Nc1ccc(C2CCc3ccccc3N2)cc1` (stereo not drawn) [Example 21, N-(4-(1,2,3,4-tetrahydroquinolin-2-yl)phenyl)acetamide], the pEC50 is under 4.00.

Turning to `Fc1ccc(C2CCc3ccccc3N2)cc1` (stereo not drawn) [Example 26, 2-(4-fluorophenyl)-1,2,3,4-tetrahydroquinoline], the pEC50 was under 4.00.

`FC(F)(F)c1ccc(C2CCc3ccccc3N2)cc1` (stereo not drawn) [Example 29, 2-(4-(trifluoromethyl)phenyl)-1,2,3,4-tetrahydroquinoline]: the pEC50 is under 4.00.

Compound `FC(F)(F)Oc1ccc(C2CCc3ccccc3N2)cc1` (stereo not drawn) [Example 31, 2-(4-(trifluoromethoxy)phenyl)-1,2,3,4-tetrahydroquinoline] had a pEC50 of under 4.00.

`NS(=O)(=O)c1ccc(C2CCc3ccccc3N2)cc1` (stereo not drawn) [Example 32, 4-(1,2,3,4-tetrahydroquinolin-2-yl)benzenesulfonamide] gave a pEC50 of under 4.00.

`NS(=O)(=O)c1ccc(C2CCc3ccccc3N2)cc1` (stereo not drawn) [Example 33, 4-(1,2,3,4-tetrahydroquinolin-2-yl)benzenesulfonamide] had a pEC50 of under 4.00.

The compound `NS(=O)(=O)c1ccc(C2CCc3ccccc3N2)cc1` (stereo not drawn) [Example 34, 4-(1,2,3,4-tetrahydroquinolin-2-yl)benzenesulfonamide] gave a pEC50 of under 4.00.

Compound `N#Cc1ccc(C2CCc3ccccc3N2)cc1` (stereo not drawn) [Example 35, 4-(1,2,3,4-tetrahydroquinolin-2-yl)benzonitrile] had a pEC50 of under 4.00.

For the compound `NC(=O)c1ccc(C2CCc3ccccc3N2)cc1` (stereo not drawn) [Example 36, 4-(1,2,3,4-tetrahydroquinolin-2-yl)benzamide], the negative-log EC50 (pEC50) was under 4.00.

Compound `NC(=O)c1ccc(C2CCc3ccccc3N2)cc1` (stereo not drawn) [Example 37, 4-(1,2,3,4-tetrahydroquinolin-2-yl)benzamide] showed a pEC50 of under 4.00.

As to `NC(=O)c1ccc(C2CCc3ccccc3N2)cc1` (stereo not drawn) [Example 38, 4-(1,2,3,4-tetrahydroquinolin-2-yl)benzamide], the pEC50 is under 4.00.

`OCc1ccc2c(c1)CCC(c1ccccc1)N2` (stereo not drawn) [Example 58, (2-phenyl-1,2,3,4-tetrahydroquinolin-6-yl)methanol] showed a pEC50 of under 4.00.

`NC(=O)Cc1ccc2c(c1)CCC(c1ccccc1)N2` (stereo not drawn) [Example 60, 2-(2-phenyl-1,2,3,4-tetrahydroquinolin-6-yl)acetamide] had a pEC50 of under 4.00.

Take `CC(C)(C)NC(=O)Cc1ccc2c(c1)CCC(c1ccccc1)N2` (stereo not drawn) [Example 61, N-(tert-butyl)-2-(2-phenyl-1,2,3,4-tetrahydroquinolin-6-yl)acetamide]: the pEC50 is under 4.00.

The compound `O=C(Cc1ccc2c(c1)CCC(c1ccccc1)N2)N1CC(O)C1` (stereo not drawn) [Example 62, 1-(3-hydroxyazetidin-1-yl)-2-(2-phenyl-1,2,3,4-tetrahydroquinolin-6-yl)ethan-1-one] showed a pEC50 of under 4.00.

As to `Fc1cccc2c1CCC(c1ccccc1)N2` (stereo not drawn) [Example 66, 5-fluoro-2-phenyl-1,2,3,4-tetrahydroquinoline], the pEC50 was under 4.00.

The compound `Clc1cccc2c1CCC(c1ccccc1)N2` (stereo not drawn) [Example 67, 5-chloro-2-phenyl-1,2,3,4-tetrahydroquinoline] gave a pEC50 of under 4.00.

For `Fc1ccc2c(c1)NC(c1ccccc1)CC2` (stereo not drawn) [Example 68, 7-fluoro-2-phenyl-1,2,3,4-tetrahydroquinoline], the pEC50 was under 4.00.

Take `Clc1ccc2c(c1)NC(c1ccccc1)CC2` (stereo not drawn) [Example 69, 7-chloro-2-phenyl-1,2,3,4-tetrahydroquinoline]: the pEC50 is under 4.00.

Turning to `FC(F)(F)Oc1ccc2c(c1)CCC(c1ccccc1)N2` (stereo not drawn) [Example 81, 2-phenyl-6-(trifluoromethoxy)-1,2,3,4-tetrahydroquinoline], the pEC50 is under 4.00.

For `Fc1ccc2c(c1)CCC(c1ccccc1)N2` (stereo not drawn) [Example 82, 6-fluoro-2-phenyl-1,2,3,4-tetrahydroquinoline], the pEC50 is under 4.00.

The compound `Clc1ccc2c(c1)CCC(c1ccccc1)N2` (stereo not drawn) [Example 83, 6-chloro-2-phenyl-1,2,3,4-tetrahydroquinoline] gave a pEC50 of under 4.00.

On to `Fc1cc2c(cc1F)NC(c1ccccc1)CC2` (stereo not drawn) [Example 85, 6,7-difluoro-2-phenyl-1,2,3,4-tetrahydroquinoline], for which the pEC50 is under 4.00.

In turn, `Cc1ccc2c(c1)CCC(c1ccc(C(N)=O)cc1)N2` (stereo not drawn) [Example 99, 4-(6-methyl-1,2,3,4-tetrahydroquinolin-2-yl)benzamide] had a negative logarithm of the EC50 (pEC50) of under 4.00.

In turn, `Cc1ccc2c(c1)NC(c1ccc(S(N)(=O)=O)cc1)CC2` (stereo not drawn) [Example 105, 4-(7-methyl-1,2,3,4-tetrahydroquinolin-2-yl)benzenesulfonamide] showed a pEC50 of under 4.00.

`Cc1ccc2c(c1)NC(c1ccc(C(N)=O)cc1)CC2` (stereo not drawn) [Example 106, 4-(7-methyl-1,2,3,4-tetrahydroquinolin-2-yl)benzamide] had a pEC50 of under 4.00.

As for `NS(=O)(=O)c1ccc(C2CCc3cc(F)ccc3N2)cc1` (stereo not drawn) [Example 107, 4-(6-fluoro-1,2,3,4-tetrahydroquinolin-2-yl)benzenesulfonamide], the pEC50 is under 4.00.

Compound `NS(=O)(=O)c1ccc(C2CCc3cc(F)ccc3N2)cc1` (stereo not drawn) [Example 108, 4-(6-fluoro-1,2,3,4-tetrahydroquinolin-2-yl)benzenesulfonamide] gave a pEC50 of under 4.00.

Take `NS(=O)(=O)c1ccc(C2CCc3cc(F)ccc3N2)cc1` (stereo not drawn) [Example 109, 4-(6-fluoro-1,2,3,4-tetrahydroquinolin-2-yl)benzenesulfonamide]: the pEC50 is under 4.00.

`Cc1cccc2c1CCC(c1ccc(S(N)(=O)=O)cc1)N2` (stereo not drawn) [Example 112, 4-(5-methyl-1,2,3,4-tetrahydroquinolin-2-yl)benzenesulfonamide] showed a pEC50 of under 4.00.

The compound `NS(=O)(=O)c1ccc(C2CCc3cc(Cl)ccc3N2)cc1` (stereo not drawn) [Example 115, 4-(6-chloro-1,2,3,4-tetrahydroquinolin-2-yl)benzenesulfonamide] showed a pEC50 of under 4.00.

Consider `NS(=O)(=O)c1ccc(C2CCc3cc(Cl)ccc3N2)cc1` (stereo not drawn) [Example 116, 4-(6-chloro-1,2,3,4-tetrahydroquinolin-2-yl)benzenesulfonamide], for which the negative-log EC50 (pEC50) was under 4.00.

`NS(=O)(=O)c1ccc(C2CCc3cc(Cl)ccc3N2)cc1` (stereo not drawn) [Example 117, 4-(6-chloro-1,2,3,4-tetrahydroquinolin-2-yl)benzenesulfonamide] gave a pEC50 of under 4.00.

Regarding `NS(=O)(=O)c1ccc(C2CCc3ccc(F)cc3N2)cc1` (stereo not drawn) [Example 118, 4-(7-fluoro-1,2,3,4-tetrahydroquinolin-2-yl)benzenesulfonamide], the pEC50 was under 4.00.

What is called pEC50 is the EC50 on a negative log10 scale, so that one unit is a factor of ten. Low readings indicate a high EC50, high ones a low EC50.
